Experimental findings from patent US7435820B2, “Substituted tetrahydro-1H-pyrazolo [3,4-c]pyridines compositions comprising them, and use” (Aventis Pharma S.A., priority 2003, dated 2008) are described below.

Molecules are shown by their SMILES. Read-outs that look alike come from different tables or passages of the source.

Experiment [1] concerns the target T1, human Tie2 (Homo sapiens, UniProt Q02763).
T1 construct: human Tie2 corresponding to amino acids 776-1124 of the intracellular domain was generated by PCR; made in house; host or cells: baculovirus expression system (vector pFastBacGT)
In words: Tie2 kinase inhibition: phosphorylation of GST-PLC (SH2-SH3 fragments) by GST-Tie2, 33P-ATP flashplate. The experiment is classed as biochemical. The method, then:
The coding sequence of human Tie2 corresponding to amino acids 776-1124 of the intracellular domain was generated by PCR using the cDNA isolated from human placenta as model. This sequence was introduced into a baculovirus expression vector pFastBacGT in the form of a GST fusion protein.
The inhibitory effect of the molecules is determined in an assay for phosphorylation of PLC by Tie2 in the presence of GST-Tie2 purified to approximately 80% homogeneity. The substrate is made up of the SH2-SH3 fragments of PLC, the latter being expressed in the form of a GST fusion protein.
The kinase activity of Tie2 is measured in a 20 mM MOPS buffer, pH 7.2, containing 10 mM MgCl2, 10 mM MnCl2, 1 mM DTT and 10 mM of glycerophosphate. A reaction mixture made up of 70 μl of kinase buffer containing 100 ng of GST-Tie2 enzyme per well is placed in a flashplate 96-well plate kept on ice. 10 μl of the molecule to be tested, diluted in DMSO, at a concentration of at most 10% are then added. For a given concentration, each measurement is carried out in quadruplicate. The reaction is initiated by adding 20 μl of solution containing 2 μg of GST-PLC, 2 μM of cold ATP and 1 μCi of ^33P[ATP]. After incubation for 1 hour at 37° C., the reaction is stopped by adding 1 volume (100 μl) of 200 mM EDTA. After removal of the incubation buffer, the wells are washed three times with 300 μl of PBS. The radioactivity is measured on a Wallac MicroBeta 1450.
The inhibition of the Tie2 activity is calculated and expressed as percentage inhibition with respect to the control activity determined in the absence of compound.

The target in experiment [2] is T2, human KDR enzyme (Homo sapiens, UniProt P35968).
T2 construct: The cytoplasmic domain of the human KDR enzyme was cloned in GST fusion form; GST; made in house; host or cells: SF21 insect cells (baculovirus, pFastBac)
T2 sequence (P35968 786-1356 limits assumed): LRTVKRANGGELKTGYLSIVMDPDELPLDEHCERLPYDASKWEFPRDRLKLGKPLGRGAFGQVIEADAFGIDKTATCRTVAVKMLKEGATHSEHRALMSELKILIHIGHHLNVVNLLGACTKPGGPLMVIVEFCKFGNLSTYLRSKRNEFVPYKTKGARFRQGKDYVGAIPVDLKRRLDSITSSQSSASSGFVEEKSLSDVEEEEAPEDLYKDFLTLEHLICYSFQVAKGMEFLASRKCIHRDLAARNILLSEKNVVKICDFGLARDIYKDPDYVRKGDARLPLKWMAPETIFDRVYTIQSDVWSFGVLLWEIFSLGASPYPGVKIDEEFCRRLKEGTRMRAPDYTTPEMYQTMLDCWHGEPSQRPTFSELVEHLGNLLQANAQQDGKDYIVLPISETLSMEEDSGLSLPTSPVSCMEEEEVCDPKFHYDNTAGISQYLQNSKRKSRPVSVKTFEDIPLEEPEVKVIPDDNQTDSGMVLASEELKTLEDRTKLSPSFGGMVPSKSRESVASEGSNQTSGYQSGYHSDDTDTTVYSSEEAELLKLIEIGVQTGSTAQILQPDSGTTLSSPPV
In words: KDR kinase inhibition: phosphorylation of PLCγ SH2-SH3 substrate by KDR enzyme, 33P-ATP scintillation plate. The experiment is classed as biochemical. The method, then:
The inhibitory effect of the compounds is determined in an assay for phosphorylation of substrate by the KDR enzyme in vitro using a scintillation technique (96-well plate, NEN).
The cytoplasmic domain of the human KDR enzyme was cloned in GST fusion form into the baculovirus expression vector pFastBac. The protein was expressed in SF21 cells and purified to approximately 60% homogeneity. The KDR kinase activity is measured in 20 mM MOPS, 10 mM MgCl2, 10 mM MnCl2, 1 mM DTT, 2.5 mM EGTA, 10 mM b-glycerophosphate, pH=7.2, in the presence of 10 mM MgCl2, 100 μM Na3VO4 and 1 mM NaF. 10 μl of the compound are added to 70 μl of kinase buffer containing 100 ng of KDR enzyme at 4° C. The reaction is initiated by adding 20 μl of solution containing 2 μg of substrate (SH2-SH3 fragment of PLCγ expressed in the form of an GST fusion protein), 2 μCi γ ^33P[ATP] and 2 μM cold ATP. After incubation for 1 hour at 37° C., the reaction is stopped by adding 1 volume (100 μl) of 200 mM EDTA. The incubation buffer is removed and the wells are washed three times with 300 μl of PBS. The radioactivity is measured in each well using a Top Count NXT (Packard) radioactivity counter.
The background noise is determined by measuring the radioactivity in four different wells containing the radioactive ATP and the substrate alone.
A total activity control is measured in four different wells containing all the reagents (γ^33P-[ATP], KDR and PLC-γ substrate) but in the absence of compound.
The inhibition of the KDR activity with the compound of the invention is expressed as percentage inhibition of the control activity determined in the absence of compound.
The compound SU5614 (Calbiochem) (1 μM) is included in each plate as inhibition control.

T1 sequence (Q02763 776-1124): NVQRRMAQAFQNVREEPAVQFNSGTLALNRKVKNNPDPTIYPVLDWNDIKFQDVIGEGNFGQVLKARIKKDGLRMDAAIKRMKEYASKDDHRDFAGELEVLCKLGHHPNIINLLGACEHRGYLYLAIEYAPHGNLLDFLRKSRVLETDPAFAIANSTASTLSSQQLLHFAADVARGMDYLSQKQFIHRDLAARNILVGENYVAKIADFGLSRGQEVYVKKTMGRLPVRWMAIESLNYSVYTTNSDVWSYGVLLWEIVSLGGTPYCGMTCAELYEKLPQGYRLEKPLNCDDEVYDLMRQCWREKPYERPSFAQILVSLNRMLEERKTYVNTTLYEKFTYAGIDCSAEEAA

`Cc1cc2nc(-c3[nH]nc4c3CCN(S(=O)(=O)c3ccc(Cl)cc3)C4)[nH]c2cc1C` [Chemistry 26]: the inhibition at 10 µM in experiment [1] (read-out: Tie2 % Inhib. 10 μM) amounted to 89.1%; in experiment [2] (read-out: KDR % Inhib. 10 μM) it was 27.8%.
On the same counts, the results for `CCCC(=O)N1CCc2c(n[nH]c2-c2nc3cc(C)c(C)cc3[nH]2)C1` [Chemistry 52] are 89.3% and 29.4%.
For `CCCCNC(=O)N1CCc2c(n[nH]c2-c2nc3cc(C)c(C)cc3[nH]2)C1` [Chemistry 64], in that order: 38.5% and 18%.
On the same counts, the results for `Cc1cc2nc(-c3[nH]nc4c3CCN(C(=O)C3CC3)C4)[nH]c2cc1C` [Chemistry 45] are 94.1% and 33.4%.
With `CCN1CCc2c(n[nH]c2-c2nc3cc(C)c(C)cc3[nH]2)C1` [Chemistry 16], the inhibition at 10 µM in experiment [1] (read-out: Tie2 % Inhib. 10 μM) is 36.4%; in experiment [2] (read-out: KDR % Inhib. 10 μM), -5.75%.
Regarding `Cc1cc2nc(-c3[nH]nc4c3CCN(CCC(C)C)C4)[nH]c2cc1C` [Chemistry 17], the values for the inhibition at 10 µM in experiment [1] (read-out: Tie2 % Inhib. 10 μM) and in experiment [2] (read-out: KDR % Inhib. 10 μM) were 50.7% and -2.9%, respectively.
On to `Cc1cc2nc(-c3[nH]nc4c3CCN(Cc3ccccc3)C4)[nH]c2cc1C` [Chemistry 8], for which the values for the inhibition at 10 µM in experiment [1] (read-out: Tie2 % Inhib. 10 μM) and in experiment [2] (read-out: KDR % Inhib. 10 μM) were 64.3% and 85.5%, respectively.
On the same counts, the results for `O=C(c1cccnc1)N1CCc2c(n[nH]c2-c2nc3ccccc3[nH]2)C1` [Chemistry 69] are 59.3% and 18.6%.
As to `Cc1cc2nc(-c3[nH]nc4c3CCN(C(=O)c3ccco3)C4)[nH]c2cc1C` [Chemistry 53], the inhibition at 10 µM in experiment [1] (read-out: Tie2 % Inhib. 10 μM) was 92.7%; in experiment [2] (read-out: KDR % Inhib. 10 μM), 74.5%.
Consider `Cc1cc2nc(-c3[nH]nc4c3CCN(S(=O)(=O)c3cccc(Cl)c3)C4)[nH]c2cc1C` [Chemistry 32], for which the inhibition at 10 µM amounted to 91.5% in experiment [1] (read-out: Tie2 % Inhib. 10 μM) and 46.5% in experiment [2] (read-out: KDR % Inhib. 10 μM).
For `Cc1cc2nc(-c3[nH]nc4c3CCN(CCc3ccccc3)C4)[nH]c2cc1C` [Chemistry 9], in that order: 56.7% and 15.4%.
`Cc1cc2nc(-c3[nH]nc4c3CCN(C(=O)c3ccccc3)C4)[nH]c2cc1C` [Chemistry 41]: the inhibition at 10 µM in experiment [1] (read-out: Tie2 % Inhib. 10 μM) amounted to 86.3%; in experiment [2] (read-out: KDR % Inhib. 10 μM), 72.5%.
Turning to `CCS(=O)(=O)N1CCc2c(n[nH]c2-c2nc3cc(C)c(C)cc3[nH]2)C1` [Chemistry 28], the values for the inhibition at 10 µM in experiment [1] (read-out: Tie2 % Inhib. 10 μM) and in experiment [2] (read-out: KDR % Inhib. 10 μM) were 78.5% and 16.5%, respectively.
On the same counts, the results for `C=CCC(=O)N1CCc2c(n[nH]c2-c2nc3cc(C)c(C)cc3[nH]2)C1` [Chemistry 51] are 72.9% and 38.7%.
Consider `Cc1cc2nc(-c3[nH]nc4c3CCN(C(=O)c3ccccc3OCc3ccccc3)C4)[nH]c2cc1C` [Example P-31378-112-9], for which the inhibition at 10 µM in experiment [1] (Assay 1, read-out: Tie2 % Inhib at 10 μM (FRX) Assay 1) came to 82.6%; in experiment [1] (Assay 2, read-out: Tie2 % Inhib at 10 μM (FRX) Assay 2), 85.9%; in experiment [2] (Assay 1, read-out: KDR % Inhib at 10 μM Assay 1), 53.2%; in experiment [2] (Assay 2, read-out: KDR % Inhib at 10 μM Assay 2), 45.1%.
In the case of `Cc1cc2nc(-c3[nH]nc4c3CCN(CC(C)C)C4)[nH]c2cc1C` [Chemistry 6], the inhibition at 10 µM worked out at 41.2% in experiment [1] (read-out: Tie2 % Inhib. 10 μM) and 2.1% in experiment [2] (read-out: KDR % Inhib. 10 μM).
For `Cc1cc2nc(-c3[nH]nc4c3CCNC4)[nH]c2cc1C` [Chemistry 22], the inhibition at 10 µM in experiment [1] (read-out: Tie2 % Inhib. 10 μM) worked out at 24.9%; in experiment [2] (read-out: KDR % Inhib. 10 μM) it was 3.65%.
For `Cc1ccc(S(=O)(=O)N2CCc3c(n[nH]c3-c3nc4cc(C)c(C)cc4[nH]3)C2)cc1` [Chemistry 35], in that order: 88.8% and 27.4%.
As for `Cc1cc2nc(-c3[nH]nc4c3CCN(C(=O)C(C)C)C4)[nH]c2cc1C` [Chemistry 40], the inhibition at 10 µM in experiment [1] (read-out: Tie2 % Inhib. 10 μM) was found to be 83.4%; in experiment [2] (read-out: KDR % Inhib. 10 μM), 14.4%.
`Cc1cc2nc(-c3[nH]nc4c3CCN(Cc3cccnc3)C4)[nH]c2cc1C` [Chemistry 14]: the inhibition at 10 µM in experiment [1] (read-out: Tie2 % Inhib. 10 μM) came out at 50.5%; in experiment [2] (read-out: KDR % Inhib. 10 μM), 14.8%.
As to `Cc1cc2nc(-c3[nH]nc4c3CCN(CCCc3ccccc3)C4)[nH]c2cc1C` [Chemistry 19], the inhibition at 10 µM in experiment [1] (read-out: Tie2 % Inhib. 10 μM) came out at 68.1%; in experiment [2] (read-out: KDR % Inhib. 10 μM), 17.9%.
